Where two headings read alike, the source gives them in different places.
Experiments:
Assay in all cases: Kinase panel profiling at 1 µmol/L (MSA or IMAP), percentage inhibition
Type in all cases: biochemical
[1] = target: panel of 255 wild-type kinases (Homo sapiens, UniProt P05771); conditions: kinase PKCβ1; 1 µmol/L single concentration; read-out: %-inhibition at 1 µmol/L, PKCβ1
[2] = target: panel of 255 wild-type kinases (Homo sapiens, UniProt Q9BYP7); conditions: kinase WNK3; 1 µmol/L single concentration; read-out: %-inhibition at 1 µmol/L, WNK3
[3] = target: T1, panel of 255 wild-type kinases (Homo sapiens, UniProt O15530); conditions: kinase PDK1; 1 µmol/L single concentration; read-out: %-inhibition at 1 µmol/L, PDK1
T1 sequence (O15530 1-556): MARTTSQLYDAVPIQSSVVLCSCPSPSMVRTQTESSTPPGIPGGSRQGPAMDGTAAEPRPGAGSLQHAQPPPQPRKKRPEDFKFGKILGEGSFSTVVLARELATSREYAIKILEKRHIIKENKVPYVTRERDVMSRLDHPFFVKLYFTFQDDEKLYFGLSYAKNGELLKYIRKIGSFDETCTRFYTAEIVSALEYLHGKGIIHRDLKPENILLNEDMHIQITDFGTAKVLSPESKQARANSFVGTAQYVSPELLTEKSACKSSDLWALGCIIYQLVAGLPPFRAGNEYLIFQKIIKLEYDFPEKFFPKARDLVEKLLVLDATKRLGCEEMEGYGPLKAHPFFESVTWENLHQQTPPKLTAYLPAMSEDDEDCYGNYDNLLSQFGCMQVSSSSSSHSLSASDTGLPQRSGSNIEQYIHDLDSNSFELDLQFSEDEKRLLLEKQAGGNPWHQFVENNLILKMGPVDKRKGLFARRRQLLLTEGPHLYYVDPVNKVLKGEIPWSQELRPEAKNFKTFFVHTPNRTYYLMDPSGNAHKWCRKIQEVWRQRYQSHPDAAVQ

[4] = target: panel of 255 wild-type kinases (Homo sapiens, UniProt P42684); conditions: ARG kinase assay; 1 µmol/L single concentration; read-out: %-inhibition ARG
[5] = target: T2, panel of 255 wild-type kinases (Homo sapiens, UniProt Q9NZJ5); conditions: kinase PEK; 1 µmol/L single concentration; read-out: %-inhibition at 1 µmol/L, PEK
T2 sequence (Q9NZJ5 30-1116): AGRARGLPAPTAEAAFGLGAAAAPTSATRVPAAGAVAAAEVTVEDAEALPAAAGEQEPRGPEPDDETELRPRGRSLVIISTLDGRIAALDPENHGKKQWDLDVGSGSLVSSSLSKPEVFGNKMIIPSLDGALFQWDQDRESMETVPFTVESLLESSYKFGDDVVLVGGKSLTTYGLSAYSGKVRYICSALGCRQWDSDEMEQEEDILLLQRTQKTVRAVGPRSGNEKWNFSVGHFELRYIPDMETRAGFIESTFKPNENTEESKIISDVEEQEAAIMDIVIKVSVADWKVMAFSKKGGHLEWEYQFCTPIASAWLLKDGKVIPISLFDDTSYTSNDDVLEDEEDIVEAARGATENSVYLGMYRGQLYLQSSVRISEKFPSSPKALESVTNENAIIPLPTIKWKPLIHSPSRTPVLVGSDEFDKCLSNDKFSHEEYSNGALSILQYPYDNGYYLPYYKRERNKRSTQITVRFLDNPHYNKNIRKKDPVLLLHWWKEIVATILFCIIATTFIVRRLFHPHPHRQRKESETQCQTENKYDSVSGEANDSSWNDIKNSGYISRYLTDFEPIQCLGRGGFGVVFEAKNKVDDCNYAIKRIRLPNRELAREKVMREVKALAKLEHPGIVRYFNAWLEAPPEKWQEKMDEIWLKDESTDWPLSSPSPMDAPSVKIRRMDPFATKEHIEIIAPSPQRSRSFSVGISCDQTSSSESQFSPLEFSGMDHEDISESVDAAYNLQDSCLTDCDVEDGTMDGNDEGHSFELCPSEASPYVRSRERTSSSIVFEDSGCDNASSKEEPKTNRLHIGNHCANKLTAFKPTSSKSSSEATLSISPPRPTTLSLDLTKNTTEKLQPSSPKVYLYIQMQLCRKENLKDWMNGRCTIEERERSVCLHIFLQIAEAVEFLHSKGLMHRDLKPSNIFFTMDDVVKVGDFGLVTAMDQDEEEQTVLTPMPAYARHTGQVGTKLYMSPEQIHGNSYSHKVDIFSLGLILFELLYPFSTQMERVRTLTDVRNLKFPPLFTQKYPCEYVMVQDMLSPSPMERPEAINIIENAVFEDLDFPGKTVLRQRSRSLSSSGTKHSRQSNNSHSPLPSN

[6] = target: panel of 255 wild-type kinases (Homo sapiens, UniProt Q14012); conditions: CaMK1α kinase assay; 1 µmol/L single concentration; read-out: %-inhibition CaMK1α
[7] = target: panel of 255 wild-type kinases (Homo sapiens, UniProt P24941); conditions: 1 µmol/L single concentration
[8] = CDK2/CycA2 kinase assay, read-out: %-inhibition CDK2/CycA2
[9] = CDK2/CycE1 kinase assay, read-out: %-inhibition CDK2/CycE1

Row | SMILES | inhibition at 1 µM [1] | inhibition at 1 µM [2] | inhibition at 1 µM [3] | inhibition at 1 µM [4] | inhibition at 1 µM [5] | inhibition at 1 µM [6] | inhibition at 1 µM [7, 8] | inhibition at 1 µM [7, 9]
1 | Cn1cc(-c2cc3c(N4CCN(c5ncc([C@@](C)(N)c6ccc(F)cc6)cn5)CC4)ncnn3c2)cn1 [avapritinib] | 1.74% | -0.0892% | 6.57% | 47% | 1.51% | -9% | -0.664% | -37%
2 | CCn1c(=O)c(-c2cc(NC(=O)Nc3ccccc3)c(F)cc2Br)cc2cnc(NC)cc21 [ripretinib] | 1.06% | -1.09% | -7% | 56% | 9% | -8% | -11% | -12%

— paper PMC9516332 (Frontiers in Oncology, 2022)
